Patent US20120202794A1 (priority 2011, published 2012)

What was measured:
[1] = Cell cytotoxicity assay (MTS), CC90 as reported in Table 1, cell line not stated; type: cell-based; details: human; MTS assay; 8 days incubation; cell line not given
Procedure, shortened: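 Compounds, serially diluted from 100 μM, were incubated 8 days at 37° C with Huh7, HepG2 or BxPC3 (2×10^3 cells/well) or CEM (5×10^3 cells/well). Viability was read by MTS, 2 h, absorbance 490 nm. CC90 (90% inhibition) was taken against untreated cells.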

[2] = system: HCV Replicon 1b; test: HCV inhibition assay, HCV replicon 1b (Clone A or ET-lunet cells; RT-PCR or luciferase reporter); type: cell-based; details: Hepatitis C virus, 96 h, HCV replicon 1b; 4 days incubation; read-out: Replicon 1b potency EC90
Procedure, shortened: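 Clone A (1500/well) or ET-lunet (3000/well) replicon cells treated with serially diluted compounds (0.5% DMSO, no G418) for 4 days at 37 °C. HCV RNA measured by one-step RT-PCR normalized to rRNA (ΔΔCt) or by luciferase luminescence versus DMSO controls; EC50/EC90 by curve fitting.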

Structure (SMILES)	CC90 at 8 days [1]	EC90 [2]
CC(C)C[C@H]1CN(C(=O)c2cn(-c3ccc(F)cc3)nn2)[C@@H](CC(C)C)C(=O)N1 [Compound 351, (3S,6S)-4-(1-(4-fluorophenyl)-1H-1,2,3-triazole-4-carbonyl)-3,6-diisobutylpiperazin-2-one]	> 10000 nM	1630 nM
CC(C)C[C@H]1C(=O)N[C@@H](c2ccccc2Cl)CN1C(=O)c1cc(-c2ccc(F)cc2)on1 [Compound 352, (3S,6S)-6-(2-chlorophenyl)-4-(5-(4-fluorophenyl)isoxazole-3-carbonyl)-3-isobutyl-piperazin-2-one]	> 10000 nM	210 nM
CC(C)C[C@H]1C(=O)N[C@@H](c2ccccc2Cl)CN1C(=O)[C@@H]1C[C@H]1c1ccccc1 [Compound 354, (3S,6S)-6-(2-chlorophenyl)-3-isobutyl-4-((1R,2R)-2-phenylcyclopropanecarbonyl)-piperazin-2-one]	> 10000 nM	1850 nM
CC(C)C[C@H]1C(=O)N[C@@H](c2ccccc2F)CN1C(=O)[C@@H]1C[C@H]1c1ccccc1 [Compound 357, (3S,6S)-6-(2-fluorophenyl)-3-isobutyl-4-((1R,2R)-2-phenylcyclopropanecarbonyl)-piperazin-2-one]	> 10000 nM	520 nM
CC(C)C[C@H]1C(=O)N[C@@H](c2ccc(Cl)cc2)CN1C(=O)c1cc(-c2ccc(F)cc2)on1 [Compound 358, (3S,6S)-6-(4-chlorophenyl)-4-(5-(4-fluorophenyl)isoxazole-3-carbonyl)-3-isobutyl-piperazin-2-one]	> 10000 nM	1530 nM
CC(C)C[C@H]1C(=O)N[C@@H](c2ccc(Cl)cc2)CN1C(=O)[C@@H]1C[C@H]1c1ccccc1 [Compound 360, (3S,6S)-6-(4-chlorophenyl)-3-isobutyl-4-((1R,2R)-2-phenylcyclopropanecarbonyl)-piperazin-2-one]	> 10000 nM	3640 nM
Cc1ccccc1[C@H]1CN(C(=O)c2cc(-c3ccc(F)cc3)on2)[C@@H](CC(C)C)C(=O)N1 [Compound 361, (3S,6S)-4-(5-(4-fluorophenyl)isoxazole-3-carbonyl)-3-isobutyl-6-(o-tolyl)piperazin-2-one]	> 10000 nM	1420 nM
Cc1ccccc1[C@H]1CN(C(=O)[C@@H]2C[C@H]2c2ccccc2)[C@@H](CC(C)C)C(=O)N1 [Compound 363, (3S,6S)-3-isobutyl-4-((1R,2R)-2-phenylcyclopropanecarbonyl)-6-(o-tolyl)piperazin-2-one]	> 10000 nM	2070 nM
CC(C)C[C@H]1C(=O)N[C@@H](c2ccc(C(F)(F)F)cc2)CN1C(=O)[C@@H]1C[C@H]1c1ccccc1 [Compound 364, (3S,6S)-3-isobutyl-4-((1R,2R)-2-phenylcyclopropanecarbonyl)-6-(4-(trifluoro-methyl)phenyl)piperazin-2-one]	> 10000 nM	> 10000 nM
CC(C)C[C@H]1C(=O)N[C@@H](c2ccc(C(F)(F)F)cc2)CN1C(=O)c1cc(-c2ccc(F)cc2)on1 [Compound 366, (3S,6S)-4-(5-(4-fluorophenyl)isoxazole-3-carbonyl)-3-isobutyl-6-(4-(trifluoromethyl)-phenyl)piperazin-2-one]	> 10000 nM	6000 nM
CC(C)C[C@H]1C(=O)N[C@@H](c2cccc(F)c2)CN1C(=O)c1cc(-c2ccc(F)cc2)on1 [Compound 367, (3S,6S)-6-(3-fluorophenyl)-4-(5-(4-fluorophenyl)isoxazole-3-carbonyl)-3-isobutylpiperazin-2-one]	> 10000 nM	270 nM
CC(C)C[C@H]1C(=O)N[C@@H](c2cccc(F)c2)CN1C(=O)[C@@H]1C[C@H]1c1ccccc1 [Compound 369, (3S,6S)-6-(3-fluorophenyl)-3-isobutyl-4-((1R,2R)-2-phenylcyclopropanecarbonyl)-piperazin-2-one]	> 10000 nM	1630 nM
CC(C)C[C@H]1C(=O)N[C@@H](c2ccccc2Cl)CN1C(=O)c1noc(-c2ccc(F)cc2)n1 [Compound 371, (3S,6S)-6-(2-chlorophenyl)-4-(5-(4-fluorophenyl)-1,2,4-oxadiazole-3-carbonyl)-3-isobutylpiperazin-2-one]	> 10000 nM	470 nM
CC(C)C[C@H]1C(=O)N[C@@H](c2ccccc2F)CN1C(=O)c1cc(-c2ccc(F)cc2)no1 [Compound 372, (3S,6S)-6-(2-fluorophenyl)-4-(3-(4-fluorophenyl)isoxazole-5-carbonyl)-3-isobutylpiperazin-2-one]	> 10000 nM	700 nM
CC(C)C[C@H]1C(=O)N[C@@H](c2ccccc2F)CN1C(=O)/C=C/c1ccc(F)cc1F [Compound 374, (3S,6S)-4-((E)-3-(2,4-difluorophenyl)acryloyl)-6-(2-fluorophenyl)-3-isobutylpipera-zin-2-one]	> 10000 nM	750 nM
CC(C)C[C@H]1C(=O)N[C@@H](c2ccccc2)CN1C(=O)c1noc(-c2ccc(F)cc2)c1F [Compound 376, (3S,6S)-4-(4-fluoro-5-(4-fluorophenyl)isoxazole-3-carbonyl)-3-isobutyl-6-phenyl-piperazin-2-one]	> 10000 nM	500 nM
CC(C)C[C@H]1CN(C(=O)c2noc(-c3ccc(F)cc3)c2F)[C@@H](CC(C)C)C(=O)N1 [Compound 379, (3S,6S)-4-(4-fluoro-5-(4-fluorophenyl)isoxazole-3-carbonyl)-3,6-diisobutylpiperazin-2-one]	> 10000 nM	210 nM
CC(C)C[C@H]1C(=O)N[C@@H](c2ccccc2F)CN1C(=O)c1noc(-c2ccc(F)cc2)c1F [Compound 380, (3S,6S)-4-(4-fluoro-5-(4-fluorophenyl)isoxazole-3-carbonyl)-6-(2-fluorophenyl)-3-isobutylpiperazin-2-one]	> 10000 nM	180 nM
CC(C)C[C@H]1C(=O)N[C@@H](C2CCCC2)CN1C(=O)c1noc(-c2ccc(F)cc2)c1F [Compound 381, (3S,6S)-6-cyclopentyl-4-(4-fluoro-5-(4-fluorophenyl)isoxazole-3-carbonyl)-3-isobutylpiperazin-2-one]	> 10000 nM	250 nM
CC(C)C[C@H]1C(=O)N[C@@H](C2CCCCC2)CN1C(=O)c1noc(-c2ccc(F)cc2)c1F [Compound 382, (3S,6S)-6-cyclohexyl-4-(4-fluoro-5-(4-fluorophenyl)isoxazole-3-carbonyl)-3-isobutylpiperazin-2-one]	> 10000 nM	370 nM
CC(C)C[C@H]1CN(C(=O)c2noc(-c3ccc(F)cc3F)c2F)[C@@H](CC(C)C)C(=O)N1 [Compound 383, (3S,6S)-4-(5-(2,4-difluorophenyl)-4-fluoroisoxazole-3-carbonyl)-3,6-diisobutyl-piperazin-2-one]	> 10000 nM	710 nM
CC(C)C[C@H]1C(=O)N[C@@H](c2ccccc2)CN1C(=O)c1noc(-c2ccc(F)cc2F)c1F [Compound 385, (3S,6S)-4-(5-(2,4-difluorophenyl)-4-fluoroisoxazole-3-carbonyl)-3-isobutyl-6-phenylpiperazin-2-one]	> 10000 nM	500 nM
CC(C)C[C@H]1C(=O)N[C@@H](c2ccccc2F)CN1C(=O)c1noc(-c2ccc(F)cc2F)c1F [Compound 386, (3S,6S)-4-(5-(2,4-difluorophenyl)-4-fluoroisoxazole-3-carbonyl)-6-(2-fluorophenyl)-3-isobutylpiperazin-2-one]	> 10000 nM	570 nM
CCC[C@H]1CN(C(=O)c2noc(-c3ccc(F)cc3F)c2F)[C@@H](CC(C)C)C(=O)N1 [Compound 387, (3S,6S)-4-(5-(2,4-difluorophenyl)-4-fluoroisoxazole-3-carbonyl)-3-isobutyl-6-propylpiperazin-2-one]	> 10000 nM	260 nM
CC(C)C[C@H]1C(=O)N[C@@H](C2CCCC2)CN1C(=O)c1noc(-c2ccc(F)cc2F)c1F [Compound 388, (3S,6S)-6-cyclopentyl-4-(5-(2,4-difluorophenyl)-4-fluoroisoxazole-3-carbonyl)-3-isobutylpiperazin-2-ono]	> 10000 nM	670 nM
CC(C)C[C@H]1C(=O)N[C@@H](C2CCCCC2)CN1C(=O)c1noc(-c2ccc(F)cc2F)c1F [Compound 389, (3S,6S)-6-cyclohexyl-4-(5-(2,4-difluorophenyl)-4-fluoroisoxazole-3-carbonyl)-3-isobutylpiperazin-2-one]	> 10000 nM	1450 nM
CC(C)C[C@H]1C(=O)N[C@@H](c2ccccc2)CN1C(=O)c1noc(-c2ccc(F)c(F)c2)c1F [Compound 390, (3S,6S)-4-(5-(3,4-difluorophenyl)-4-fluoroisoxazole-3-carbonyl)-3-isobutyl-6-phenylpiperazin-2-one]	> 10000 nM	2050 nM
CC(C)C[C@H]1C(=O)N[C@@H](c2ccccc2F)CN1C(=O)c1noc(-c2ccc(F)c(F)c2)c1F [Compound 392, (3S,6S)-4-(5-(3,4-difluorophenyl)-4-fluoroisoxazole-3-carbonyl)-6-(2-fluorophenyl)-3-isobutylpiperazin-2-one]	> 10000 nM	1910 nM
CCC[C@H]1CN(C(=O)c2noc(-c3ccc(F)c(F)c3)c2F)[C@@H](CC(C)C)C(=O)N1 [Compound 393, (3S,6S)-4-(5-(3,4-difluorophenyl)-4-fluoroisoxazole-3-carbonyl)-3-isobutyl-6-propylpiperazin-2-one]	> 10000 nM	260 nM
CC(C)C[C@H]1CN(C(=O)c2noc(-c3ccc(F)c(F)c3)c2F)[C@@H](CC(C)C)C(=O)N1 [Compound 394, (3S,6S)-4-(5-(3,4-difluorophenyl)-4-fluoroisoxazole-3-carbonyl)-3,6-diisobutyl-piperazin-2-one]	> 10000 nM	660 nM
